Assay [1] concerns the target T1, Full length human recombinant HDAC8 protein (Homo sapiens, UniProt Q9BY41).
T1 construct: Full length human recombinant HDAC8 protein was expressed in baculoviral system; made in house
T1 sequence (Q9BY41 1-377): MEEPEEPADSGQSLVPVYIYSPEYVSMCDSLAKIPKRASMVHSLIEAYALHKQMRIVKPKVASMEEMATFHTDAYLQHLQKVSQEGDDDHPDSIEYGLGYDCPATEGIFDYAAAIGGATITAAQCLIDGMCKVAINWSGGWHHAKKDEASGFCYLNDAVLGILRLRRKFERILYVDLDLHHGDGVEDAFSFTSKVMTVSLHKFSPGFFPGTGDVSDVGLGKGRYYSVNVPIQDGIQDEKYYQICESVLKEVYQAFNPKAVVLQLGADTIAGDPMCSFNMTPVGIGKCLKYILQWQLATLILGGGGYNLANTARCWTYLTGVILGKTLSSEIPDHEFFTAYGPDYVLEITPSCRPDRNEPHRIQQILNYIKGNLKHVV
Put plainly: In vitro histone deacetylase assay: enzymatic HDAC8 assay, electrophoretic mobility shift. The format is biochemical. The following applies: substrate RHKK(Ac)-NH2, 1 nM enzyme, compounds listed under IC50 range headings. The method in brief: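 Baculovirus-expressed full-length human HDAC8 (1 nM) deacetylated 2 µM fluorescent RHKK(Ac)-NH2 peptide in pH 7.5 HEPES, 1% DMSO, at 25 °C, with 12 compound concentrations at 3× spacing. SDS-quenched; product and substrate resolved by microfluidic electrophoresis, P/(S+P) converted to percent inhibition, and IC50 obtained by 4-parameter fit.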
(In general: In EMSA bound probe runs differently from free probe, usually more slowly.)

Assay [2] deals with T2, Recombinant N-terminal GST tag full-length human HDAC8 (Homo sapiens, UniProt Q9BY41).
T2 construct: Recombinant N-terminal GST tag full-length human HDAC8; purchased SignalChem H90-30G-1000; host or cells: Sf9 insect cells (baculovirus)
T2 sequence (Q9BY41 1-377): T1 sequence (Q9BY41 1-377)
Put plainly: HDAC8 probe binding assay, time resolved fluorescence (TRF). The following applies: fluorescein labeled pan-HDAC inhibitor probe, 16 hours incubation, compounds listed under IC50 range headings. The protocol: The HDAC8 probe binding assay was performed using a time resolved fluorescence (TRF) assay format. Recombinant N-terminal GST tag full-length human HDAC8 was expressed and purified from baculovirus in Sf9 insect cells (SignalChem, #H90-30G-1000), Each assay was performed in 1536 black well microplates (Corning, #3936) in a final volume of 4 μL in assay buffer containing 50 mM HEPES (pH 7.5), 50 mM KCl, 50 mM NaCl, 0.5 mM GSH (L-Glutathione reduced, Sigma #G4251), 0.03% BGG (0.22 μM filtered, Sigma, #G7516-25G), and 0.01% Triton X-100 (Sigma, #T9284-10L). 20 nL of 10-point, 3-fold serial dilution in DMSO was pre-dispensed into respective wells of 1536 assay plates for a final test concentration range of 25 μM to 1.3 nM respectively. The final concentration in the assay of HDAC8 and probe (a fluorescein labeled pan-HDAC inhibitor) was 2.5 nM and 1.5 nM respectively. 2 μL of 2× probe and 2× anti-GST Terbium (Cisbio, #61GSTXLB) was added to assay plates followed by 2 μL of 2× HDAC8. Plates were incubated for 16 hours at room temperature before time resolved fluorescence was read on the Envision (Excitation at 340 nm, and Emission at 485 nm and 535 nm, Perkin Elmer).
Data from HDAC8 Assays were reported as percent inhibition (inh) compared with control wells based on the following equation: % inh=1−((FLU−AveLow)/(AveHigh−AveLow)) where FLU=measured time resolved fluorescence. AveLow=average time resolved fluorescence of no enzyme control (n=32). AveHigh=average time resolved fluorescence of DMSO control (n=32). IC50 values were determined by curve fitting of the standard 4 parameter logistic fitting algorithm included in the Activity Base software package: IDBS XE Designer Model205. Data is fitted using the Levenburg Marquardt algorithm.

pIC50: −log10 of the molar value.

IC50 data for 30 compounds are collected here from patent US10508077B2 (FORMA Therapeutics, Inc., priority 2015, dated 2019).

By pIC50 is commonly meant −log10 of the IC50, conventionally taken in molar units. Consider `O=C(/C=C/c1ccccc1N1CC[C@H](c2ccccc2)C1=O)NO` (single isomer, unassigned) [Example I-327], for which the figures for the negative logarithm of the IC50 (pIC50) in assay [1] and in assay [2] were over 6.00 and at least 6.00, respectively. `O=C(/C=C/c1ccccc1N1CC[C@@H](c2ccccc2)C1=O)NO` (single isomer, unassigned) [Example I-328]: the pIC50 in assay [1] is over 6.00; in assay [2], at least 6.00. In the case of `O=C(/C=C/c1ccccc1NCc1ccccc1)NO` [Example I-40], the pIC50 is over 6.00 in assay [1] and at least 6.00 in assay [2].

For the compound `O=C(/C=C/c1ccccc1NC(=O)c1cccc(C(F)(F)F)c1)NO` [Example I-41, (E)-N-(2-(3-(hydroxyamino)-3-oxoprop-1-en-1-yl)phenyl)-3-(trifluoromethyl)benazmide], the pIC50 is over 6.00 in assay [1] and at least 6.00 in assay [2]. The like results for `CC(=O)Nc1cccc(CNc2ccccc2/C=C/C(=O)NO)c1` [Example I-43, (E)-3-(2-((3-acetamidobenzyl)amino)phenyl)-N-hydroxyacrylamide] were, in that order, over 6.00 and 4.00 to 6.00. As for `N#Cc1cccc(C(=O)Nc2ccccc2/C=C/C(=O)NO)c1` [Example I-44, (E)-3-cyano-N-(2-(3-(hydroxyamino)-3-oxoprop-1-en-1-yl)phenyl)benzamide], the pIC50 was over 6.00 in assay [1] and at least 6.00 in assay [2]. Regarding `N#Cc1cccc(CNc2ccccc2/C=C/C(=O)NO)c1` [Example I-45, (E)-3-(2-((3-cyanobenzyl)amino)phenyl)-N-hydroxyacrylamide], the figures for the pIC50 in assay [1] and in assay [2] were over 6.00 and 4.00 to 6.00, respectively.

Consider `O=C(/C=C/c1ccccc1NCc1cccc(CCCO)c1)NO` [Example I-48, (E)-N-hydroxy-3-(2-((3-(3-hydroxypropyl)benzyl)amino)phenyl)acrylamide], for which the results for the pIC50 in assay [1] and in assay [2] were over 6.00 and 4.00 to 6.00, respectively. The like results for `O=C(/C=C/c1ccccc1NC(=O)c1cccc(CCCO)c1)NO` [Example I-49, (E)-N-(2-(3-(hydroxyamino)-3-oxoprop-1-en-1-yl)phenyl)-3-(3-hydroxypropyl)benzamide] were, in that order, over 6.00 and at least 6.00. With `O=C(/C=C/c1ccccc1N1CCCC12CN(C(=O)c1ccc(F)cc1)C2)NO` [Example I-554, (E)-3-(2-(2-(4-fluorobenzoyl)-2,5-diazaspiro[3.4]octan-5-yl)phenyl)-N-hydroxyacrylamide], the negative logarithm of the IC50 (pIC50) in assay [2] was 4.00 to 6.00. Still for that read-out and setting: next, `O=C(/C=C/c1cc(F)ccc1NC(=O)c1ccccc1Oc1ccc(F)cc1)NO` [Example I-555, N-{4-fluoro-2-[(1E)-2-(hydroxycarbamoyl)eth-1-en-1-yl]phenyl}-2-(4-fluorophenoxy)benzamide]: at least 6.00.

As for `Cn1cc(Oc2ccccc2C(=O)Nc2ccc(F)cc2/C=C/C(=O)NO)cn1` [Example I-558, N-{4-fluoro-2-[(1E)-2-(hydroxycarbamoyl)eth-1-en-1-yl]phenyl}-2-[(1-methyl-1H-pyrazol-4-yl)oxy]benzamide], the pIC50 in assay [2] is at least 6.00. For the compound `COc1ccc(Oc2ccccc2C(=O)Nc2ccccc2/C=C/C(=O)NO)cc1` [Example I-559], in assay [2], the pIC50 was at least 6.00. `Cc1ccc(Oc2ccccc2C(=O)Nc2ccc(Cl)cc2/C=C/C(=O)NO)cn1` [Example I-560, N-{4-chloro-2-[(1E)-2-(hydroxycarbamoyl)eth-1-en-1-yl]phenyl}-2-[(6-methylpyridin-3-yl)oxy]benzamide]: the pIC50 in assay [2] was at least 6.00. Consider `O=C(/C=C/c1ccccc1N1CCCC12CN(C(=O)Cc1ccccc1)C2)NO` [Example I-561, (E)-N-hydroxy-3-(2-(2-(2-phenylacetyl)-2,5-diazaspiro[3.4]octan-5-yl)phenyl)acrylamide], for which, in assay [2], the pIC50 was at least 6.00. Still for that read-out and setting: next, `O=C(/C=C/c1ccccc1N1CCCC12CN(C(=O)Cc1ccc(F)cc1)C2)NO` [Example I-562]: at least 6.00.

Take `O=C(/C=C/c1c(Cl)cccc1NC(=O)c1ccccc1Oc1ccc(F)cc1)NO` [Example I-563, N-{3-chloro-2-[(1E)-2-(hydroxycarbamoyl)eth-1-en-1-yl]phenyl}-2-(4-fluorophenoxy)benazmide]: in assay [2], the pIC50 was at least 6.00. On the same count and under the same terms, next, `O=C(/C=C/c1ccc(Cl)cc1NC(=O)c1ccccc1Oc1ccc(F)cc1)NO` [Example I-564, N-{5-chloro-2-[(1E)-2-(hydroxycarbamoyl)eth-1-en-1-yl]phenyl}-2-(4-fluorophenoxy)benzamide]: at least 6.00. On the same count and under the same terms, next, `O=C(/C=C/c1ccccc1N1CCCC12CN(C(=O)C1CCCC1)C2)NO` [Example I-565, (E)-3-(2-(2-(cyclopentanecarbonyl)-2,5-diazaspiro[3.4]octan-5-yl)phenyl)-N-hydroxyacrylamide]: at least 6.00; `O=C(/C=C/c1ccccc1N1CCCC12CN(C(=O)CC(F)(F)F)C2)NO` [Example I-566, (E)-N-hydroxy-3-(2-(2-(3,3,3-trifluoropropanoyl)-2,5-diazaspiro[3.4]octan-5-yl)phenyl)acrylamide]: at least 6.00. On the same count and under the same terms, next, `O=C(/C=C/c1ccccc1N1CCCC12CN(C(=O)C1CCCCC1)C2)NO` [Example I-567, (E)-3-(2-(2-(cyclohexanecarbonyl)-2,5-diazaspiro[3.4]octan-5-yl)phenyl)-N-hydroxyacrylamide]: 4.00 to 6.00; `CC1(C(=O)N2CC3(CCCN3c3ccccc3/C=C/C(=O)NO)C2)CCCCC1` [Example I-568, (E)-N-hydroxy-3-(2-(2-(1-methylcyclohexane-1-carbonyl)-2,5-diazaspiro[3.4]octan-5-yl)phenyl)acrylamide]: at least 6.00. With `CC(C)(C)C(=O)N1CC2(CCCN2c2ccccc2/C=C/C(=O)NO)C1` [Example I-569], the pIC50 in assay [2] was at least 6.00. Take `O=C(/C=C/c1cc(Cl)ccc1NC(=O)c1cccnc1Oc1ccccc1)NO` [Example I-570, N-{4-chloro-2-[(1E)-2-(hydroxycarbamoyl)eth-1-en-1-yl]phenyl}-2-phenoxypyridine-3-carboxamide]: the pIC50 in assay [2] was at least 6.00.

In the case of `O=C(/C=C/c1cc(Cl)ccc1NC(=O)c1cccnc1Oc1ccc(Cl)cc1)NO` [Example I-572, N-{4-chloro-2-[(1E)-2-(hydroxycarbamoyl)eth-1-en-1-yl]phenyl}-2-(4-chlorophenoxy)pyridine-3-carboxamide], in assay [2], the pIC50 is at least 6.00. `COc1ccc(Oc2ccccc2C(=O)Nc2ccc(Cl)cc2/C=C/C(=O)NO)cc1` [Example I-573, N-{4-chloro-2-[(1E)-2-(hydroxycarbamoyl)eth-1-en-1-yl]phenyl}-2-(4-methoxyphenoxy)benzamide]: the pIC50 in assay [2] was at least 6.00. On the same count and under the same terms, next, `O=C(/C=C/c1ccccc1N1CCC2(CCCN2C(=O)c2ccc(F)cc2)C1)NO` (stereo not drawn) [Example I-575, (E)-3-(2-(1-(4-fluorobenzoyl)-1,7-diazaspiro[4.4]nonan-7-yl)phenyl)-N-hydroxyacrylamide]: at least 6.00; `O=C(/C=C/c1ccccc1N1CCC2(CCCN2C(=O)CC(F)(F)F)C1)NO` (stereo not drawn) [Example I-576, (E)-N-hydroxy-3-(2-(1-(3,3,3-trifluoropropanoyl)-1,7-diazaspiro[4.4]nonan-7-yl)phenyl)acrylamide]: at least 6.00.

With `O=C(/C=C/c1ccccc1N1CCC2(CCCN2C(=O)Cc2ccccc2)C1)NO` (stereo not drawn) [Example I-579, (E)-N-hydroxy-3-(2-(1-(2-phenylacetyl)-1,7-diazaspiro[4.4]nonan-7-yl)phenyl)acrylamide], the pIC50 in assay [2] is 4.00 to 6.00.

On to `O=C(/C=C/c1ccccc1N1CCN(c2ccc(Cl)c(C(F)(F)F)c2)CC1=O)NO` [Example I-582, (E)-3-(2-(4-(4-chloro-3-(trifluoromethyl)phenyl)-2-oxopiperazin-1-yl)phenyl)-N-hydroxyacrylamide], for which, in assay [2], the pIC50 was 4.00 to 6.00.
